In PubChem BioAssay AID258 (DTP/NCI, 2004):
Where “and” joins values, the source holds several entries; their conditions need not be identical. Equal values may be shown once. Toxic doses and inconclusive results are not listed.

Tested on: CD2F1 mice, L1210 leukemia sc, survival T/C
Assay: NCI In Vivo Anticancer Drug Screen. Data for tumor model L1210 Leukemia (subcutaneous) in CD2F1 (CDF1) mice
Details: endpoint: median survival time, higher = longer survival
In short: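 Read-out: survival or tumor size. Value = treated (T) / vehicle control (C). Transplantable tumor in mice.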

[1] = dose: 65.0 mg/kg/injection, schedule: Q01DX Z (sc), vehicle: methylcellulose (MC)
[2] = dose: 108.0 mg/kg/injection, schedule: Q01DX Z (sc), vehicle: methylcellulose (MC)
[3] = dose: 180.0 mg/kg/injection, schedule: Q01DX Z (sc), vehicle: methylcellulose (MC)

**Q.** How did the T/C (dose: 5.0 mg/kg/injection, schedule: Q01DX009 (ip), vehicle: acid diluted with saline) turn out when `CN(C)CCN1C(=O)c2cccc3cc(N)cc(c23)C1=O` was run?
**A.** Its T/C is 102 % of control and 105 % of control and 118 % of control.

**Q.** What about the T/C (dose: 7.0 mg/kg/injection, schedule: Q01DX009 (ip), vehicle: acid diluted with saline) of the same molecule?
**A.** Its T/C is 103 % of control and 115 % of control and 121 % of control.

**Q.** What about the T/C (dose: 10.0 mg/kg/injection, schedule: Q01DX009 (ip), vehicle: acid diluted with saline) of the same molecule?
**A.** Its T/C is 112 % of control.

**Q.** And the T/C (dose: 16.0 mg/kg/injection, schedule: Q01DX009 (ip), vehicle: acid diluted with saline)?
**A.** The T/C was 150 % of control and 173 % of control.

**Q.** And the T/C (dose: 24.0 mg/kg/injection, schedule: Q01DX009 (ip), vehicle: acid diluted with saline)?
**A.** The T/C was 116 % of control.

**Q.** `CCn1cnc2c(SC)ncnc21` was tested. Which T/C [1] did it give?
**A.** Its T/C is 100 % of control.

**Q.** And the T/C [2]?
**A.** Its T/C is 100 % of control.

**Q.** And the T/C [3]?
**A.** The T/C was 100 % of control.

**Q.** How did the T/C (dose: 8.4 mg/kg/injection, schedule: Q01DX Z (sc), vehicle: methylcellulose (MC)) turn out when `Clc1ccc(CNc2ncnc3[nH]ncc23)cc1Cl` was run?
**A.** Its T/C is 95 % of control.

**Q.** What about the T/C (dose: 14.0 mg/kg/injection, schedule: Q01DX Z (sc), vehicle: methylcellulose (MC)) of the same molecule?
**A.** The T/C was 95 % of control.

**Q.** And the T/C (dose: 23.0 mg/kg/injection, schedule: Q01DX Z (sc), vehicle: methylcellulose (MC))?
**A.** The T/C was 95 % of control.

**Q.** What about the T/C (dose: 39.0 mg/kg/injection, schedule: Q01DX Z (sc), vehicle: methylcellulose (MC)) of the same molecule?
**A.** The T/C was 100 % of control.

**Q.** And the T/C [1]?
**A.** The T/C was 104 % of control.

**Q.** What about the T/C [2] of the same molecule?
**A.** Its T/C is 114 % of control.

**Q.** And the T/C [3]?
**A.** The T/C was 104 % of control.

**Q.** `O=c1n(CC2CO2)c(=O)n(CC2CO2)c(=O)n1CC1CO1` (stereo unspecified) was tested. Which T/C (dose: 12.5 mg/kg/injection, schedule: Q04DX003 (ip), vehicle: saline) did it give?
**A.** The T/C was 106 % of control.

**Q.** And the T/C (dose: 25.0 mg/kg/injection, schedule: Q04DX003 (ip), vehicle: saline)?
**A.** The T/C was 114 % of control.

**Q.** What about the T/C (dose: 40.0 mg/kg/injection, schedule: Q01DX009 (ip), vehicle: saline) of the same molecule?
**A.** The T/C was 150 % of control and 191 % of control.

**Q.** What about the T/C (dose: 40.0 mg/kg/injection, schedule: Q04DX003 (ip), vehicle: saline) of the same molecule?
**A.** The T/C was 114 % of control.

**Q.** What about the T/C (dose: 50.0 mg/kg/injection, schedule: Q01DX009 (ip), vehicle: saline) of the same molecule?
**A.** Its T/C is 172 % of control and 193 % of control.

**Q.** And the T/C (dose: 50.0 mg/kg/injection, schedule: Q04DX003 (ip), vehicle: saline)?
**A.** Its T/C is 153 % of control and 172 % of control.
